Reference: patent US20150297718A1, “ION[…] OF CATIONIC PRODRUGS FOR TOPICAL TREATMENT OF MUSCU[…] SKIN DISEASES” (priority 2014, published 2015)
Structures can show the parent of a compound that is named as a salt.

What was measured:
[1] = In-vitro side-by-side diffusion cell study, iontophoresis across human epidermis skin; assay type: in vitro ADME
Excerpt: The efficiency in anode iontophoresis delivery of KCE and that in cathode iontophoresis delivery of ketoprofen were compared with an in-vitro side-by-side diffusion cell study. […] The human cadaver epidermis skin was sandwiched between the two half cells with stratum corneum face the donor chamber. For anode iontophoresis of KCE, KCE chloride salt solution (26.6 μmol/ml) was placed in the donor cell. For cathode iontophoresis of ketoprofen (Kt), […] solution (26.6 μmol/ml) was placed in the donor cell. Phosphate buffer solution (0.15 M at pH 7.4) was placed in the receiver chamber. Constant current 0.2 mA was applied to the diffusion cell. The amount of drug penetrated through the skin was collected in the receive chamber and analyzed with a HPLC. The anode iontophoresis of the cationic prodrug KCE delivered 4 times more drug across the skin than that delivered by the cathode iontophoresis of ketoprofen (see FIG. 4A) from the in-vitro study.
Anode iontophoresis of the cationic ketoprofen prodrug KCE (26.6 μmol/ml) with the presence of phenylephrine (PE) (4.9 μmol/ml) in solution was evaluated with an in-vitro diffusion cell study across a human epidermis skin.

[2] = Passive penetration across human epidermis skin in side-by-side diffusion cells; conditions: no electric current, 6 hours
Excerpt: The efficiency in anode iontophoresis delivery of KCE and that in cathode iontophoresis delivery of ketoprofen were compared with an in-vitro side-by-side diffusion cell study. […] The human cadaver epidermis skin was sandwiched between the two half cells with stratum corneum face the donor chamber. […] Phosphate buffer solution (0.15 M at pH 7.4) was placed in the receiver chamber. […]

[3] = In vivo rat study of iontophoresis delivery on dorsal back skin: tissue and plasma drug concentrations; conditions: for Drug concentration in the skin: delivered drug (prodrug or ketoprofen); for Concentration of ketoprofen converted from the prodrug in the skin: number in bracket
Procedure: (§1) The anode iontophoresis of ketoprofen cationic prodrugs KCE, KME and cathode iontophoresis of ketoprofen were compared with an in vivo rat study for evaluation of drug penetration into deep tissues. […] A prodrug solution was loaded in the cell. A constant current of 0.4 mA/cm^2 for iontophoresis was applied for 6 hours. At the end of the iontophoresis delivery, the rats were euthanized. The skin of the application site (under the glass cell) was washed with water, tape stripped once to remove residue drug on skin, and then dissected with a biopsy punch for the tissue layers: epidermis and dermis layer (depth 0-3 mm), subcutaneous tissue (fat pad) (3-4 mm), shallow muscle layer (4-6 mm), and deep muscle (6-10 mm). The tissues from the contralateral site were dissected with the same method. In addition, the plasma blood samples were obtained right before the experiment (time 0) and each hour during the experiment. The drug concentrations in the tissue and plasma samples were analyzed with a HPLC.
as §1, with “cationic prodrugs and cathode” for “cationic prodrugs KCE, KME and cathode”, “ketoprofen were also compared with” for “ketoprofen were compared with”, “rat study at 0.4 mA/cm^2 for a shorter duration of 2 hours for evaluation” for “rat study for evaluation”, “applied for 2 hours. At” for “applied for 6 hours. At”
as §1, with “cationic prodrugs and cathode” for “cationic prodrugs KCE, KME and cathode”, “ketoprofen were also compared with” for “ketoprofen were compared with”, “rat study at 0.057 mA/cm^2 for a duration of 6 hours for evaluation” for “rat study for evaluation”, “current of 0.057 mA/cm^2 for” for “current of 0.4 mA/cm^2 for”, “with a HPLC” for “with a HPLC.”
KPE is a prodrug of ketoprofen but with two methyl groups on the nitrogen atom, instead of three methyl groups on the nitrogen atom like KCE and KME. KPE can be presented as a hydrochloride salt. […] Anode iontophoresis delivery of KPE in this aqueous solution at 0.4 mA/cm^2 for a shorter duration of 2 hour was also conducted with the in vivo rat study.

melanoma cell (A375) = assay: In vitro cell viability assay on melanoma cell growth; assay type: cell-based; conditions: A375 cells, read-out: 50% inhibition concentration (IC50) on melanoma cell (A375) growth
Excerpt: The drug concentrations in the skin after the iontophoresis delivery of those prodrugs or their parent drug ketoprofen from different iontophoresis conditions are summarized in Table 2. The high drug concentration in the skin can be used for treatment of skin diseases including skin cancers such as melanoma. […] The ketoprofen concentrations in the skin from the iontophoresis delivery was not higher than its IC50 against the melanoma cell growth, but the KCE and KME concentrations in the skin from the anode iontophoresis delivery were higher than their IC50 against the melanoma cell growth. Thus, the anode iontophoresis of the prodrugs can provide high drug accumulation in the skin, and such high drug accumulation in the skin can be used for skin disease treatment.

[4] = Iontophoresis delivery into hairless rat knee joint: tissue and plasma drug concentrations; assay type: in vivo; conditions: 0.4 mA/cm^2 for 20 min; 0.5-hour and 2-hour time points
Procedure: Hairless rats were anaesthetized with isoflurane. A rubber disk shape applicator with a sponge that can hold 0.5 ml of the drug solution was used and a button Ag/AgCl electrode was used as current driving electrode. The delivery area is about 1.2 cm^2. After drug solution was loaded into the sponge, the applicator was placed on the knee cap skin and applied an electric current at 0.4 mA/cm^2 for 20 min. A return electrode was attached to the upper tail of the rat. After that, the skin was cleaned thoroughly with wet Kim wipes. The tissues (skin, muscle and joint) at the application site knee and also the contralateral site knee were collected at 30 min, 2 hr, 4 hr or 6 hr from the start of iontophoresis delivery. Three animals were used for each time point. Blood samples were also collected at appropriate time points. The tissue and blood samples were stored at −80° C. until further processing.

[5] = tested on: knee arthritis pain model (monosodium iodoacetate); assay: MIA knee osteoarthritis rat model treated with iontophoresis; assay type: in vivo; conditions: 0.4 mA/cm^2 for 20 min on days 1, 2, 3 after MIA; versus iontophoresis of NaCl
Procedure: A knee arthritis pain model was established by injection of 50 μl of 60 mg/ml monosodium iodoacetate (MIA) into the left hind knee joint of 12 hairless rats, and they were divided into three groups. The knee diameters of both hind knees were measured. The difference in knee diameters between the left knee and right knee was used as the indicator of the swelling (or inflammation) of the left knee. In addition, the weight bearing of each hind limb was also measured with a Linton incapacitance tester. The percentage of the weight bearing by the left leg was used as an indicator of the pain level in the knee. At 1 day, 2 days, 3 days after the injection of MIA, the left knee of the rats in group 1 was treated with iontophoresis of NaCl to the left hind knee at 0.4 mA/cm^2 for 20 min, group 2 treated with iontophoresis of Kt to the left hind knee at 0.4 mA/cm^2 for 20 min, and group 3 treated with iontophoresis of KCE to the left hind knee at 0.4 mA/cm^2 for 20 min. The knee diameter and weight bearing were measured at day 0 before the MIA injection, and also at day 1, 2, and 3 after the MIA injection but before the iontophoresis treatment. They were also measured at day 4, 6, and 10 after the MIA injection.

[6] = Bioconversion of ketoprofen prodrugs in fresh rat plasma
[7] = Bioconversion of ketoprofen prodrugs in fresh human plasma
[8] = iontophoresis 0.057 mA/cm^2 for 6 hrs
[9] = iontophoresis 0.4 mA/cm^2 for 2 hrs
[10] = iontophoresis 0.4 mA/cm^2 for 6 hrs

SMILES: CC(C(=O)OCC[N+](C)(C)C)c1cccc(C(=O)c2ccccc2)c1 (stereo not shown) [KCE, Ketoprofen choline ester chloride salt]
- Drug delivered across the skin relative to cathode iontophoresis of ketoprofen ([1]; 0.2 mA constant current, 26.6 μmol/ml donor, anode iontophoresis): 4 times
- Amount penetrated across the skin by anode iontophoresis, KCE alone versus KCE with phenylephrine ([1]; KCE 26.6 μmol/ml, PE 4.9 μmol/ml, 0.2 mA): slightly higher than that with the PE in the solution
- Passive penetration across human epidermis skin [2]: Almost no KCE chloride was penetrated across the human skin in 6 hours
- Plasma and contralateral tissue drug concentration ([3]; 0.057 mA/cm^2 for 6 hours): initial lower plasma concentration, but reached a plasma concentration similar to that from iontophoresis of Kt at 6 hours
- Tissue drug concentrations / direct penetration at the application site ([3]; 0.057 mA/cm^2 for 6 hours): direct penetration into deeper tissues that is up into the shallow muscles
- Plasma drug concentration ([3]; 0.4 mA/cm^2 for 2 hours): lower than that from iontophoresis of ketoprofen
- Tissue drug concentrations / direct penetration at the application site ([3]; 0.4 mA/cm^2 for 2 hours): direct penetration into deeper tissues up into the deep muscles
- Drug in tissues at the contralateral site ([3]; 0.4 mA/cm^2 for 6 hours): No prodrug was detected in the contralateral tissues
- Plasma drug concentration ([3]; 0.4 mA/cm^2 for 6 hours): much lower than that from the iontophoresis of Kt
- Tissue drug concentrations / direct penetration at the application site ([3]; 0.4 mA/cm^2 for 6 hours): much higher concentration in the drug application site than the Kt concentration in the contralateral site
- Drug concentration in the skin [3, 8]: 887 μmol per kilogram of skin
- Concentration of ketoprofen converted from the prodrug in the skin [3, 8]: 905 μmol per kilogram of skin
- Drug concentration in the skin [3, 9]: 6719 μmol per kilogram of skin
- Concentration of ketoprofen converted from the prodrug in the skin [3, 9]: 2996 μmol per kilogram of skin
- Drug concentration in the skin [3, 10]: 25869 μmol per kilogram of skin
- Concentration of ketoprofen converted from the prodrug in the skin [3, 10]: 13527 μmol per kilogram of skin
- IC50 (melanoma cell (A375)): 2.65 mM
- Drug concentrations in the knee joint and surrounding muscle tissues [4]: higher drug concentrations in the knee joint and also surrounding muscle tissues than those from the cathode iontophoresis of Kt
- Knee swelling (knee diameter difference left vs right) [5]: significant reduction of the knee swelling
- Weight bearing of the left leg (pain indicator) [5]: significant improvement in the weight bearing of the left leg
- Bioconversion (half life) in rat plasma [6]: 8.6 min
- Bioconversion (half life) in human plasma [7]: <2 min
